One test deals with WDR5 synthetic protein (Homo sapiens, UniProt P61964). The experiment in a line: Polypeptide microarray of KDM6B incubated with biotin-labeled WDR5. The class given is binding. The settings on record: FIG. 3A, B; positive = optical density more than 30%. From the text: • (1) Synthesis of polypeptide chip: A polypeptide chip was designed by overlapping and synthesized according to the sequence of KDM6B protein, with a total of two arrays. • (2) Synthesis of polypeptide microarray: A matrix membrane was activated, and placed on a fully automated polypeptide chip synthesizer. A Fmoc-amino acid solution was automatically transferred to a specific position on the activated membrane according to the set procedure, to react with the membrane. The membrane was immersed sequentially into the blocking solution I and II to block side chains, and washed with dimethyl formamide (DMF). The membrane was placed in a deprotection solution to remove the Fmoc protective group at the amino-terminal, then washed with DMF, and dried with ethanol. The above steps were repeated until all polypeptide microarrays were completely synthesized. After the synthesis was completed, the protective groups of the side chains were removed with specific organic reagents. […] The control group was incubated with the blocking solution. • (6) Streptavidin-HRP incubation: The reaction reagent Streptavidin-HRP (High Sensitivity Streptavidin-HRP (prod #21133)) was diluted with the blocking solution in an ratio of 1:10000, and then the polypeptide microarray chip was incubated with 5 ml of the diluted Streptavidin-HRP under shaking at room temperature for 2 hours, and washed. • (7) Color development: ECL luminescence reagent was added, and digital imaging was performed on a Chempchemi digital imager. • (8) Scan of polypeptide microarray chip and data analysis of color spot: The colored polypeptide microarray chip was imaged at 425 nm using the Chempchemi Imaging System with 200 s exposure. The optical density of colored spots was analyzed using TotalLab image analysis software, and the optical density of each colored spot was calculated using the “Spot Edge Average” algorithm in the software, with the optical density of the surrounding background of each colored spot as a reference. […]

For test [1], the target named is KDM6B/WDR5 protein complex (Homo sapiens, UniProt P61964). The test is described as follows: Co-IP of KDM6B/WDR5 complex in bone marrow mesenchymal stem cells. The class given is cell-based. Also noted: endogenous in cells; host or cells: bone marrow mesenchymal stem cells. The settings on record: FIG. 3C. How it is done: Protein was extracted from cells of knockout group and overexpression group using IP lysate. The knockout group cells SCAPs-Scramsh and SCAPs-KDM6Bsh, SCAPs-Scramsh and SCAPs-WDR5sh, BMSCs-Scramsh and BMSCs-WDR5sh were added with KDM6B antibody, WDR5 antibody, and IgG antibody, respectively, and then rotated on a shaker at 4° C. overnight. On the next day, the cells were added with Protein A/G beads and rotated on a rotary shaker at 4° C. for 2 hours. A complex of protein-antibody-agarose bead was formed, and the formation of a protein complex of KDM6B and WDR5WB was detected by WB. The overexpression group cells SCAPs-Vector, SCAPs-HA-KDM6B, SCAPs-HA-KDM6B-mut102, and SCAPs-HA-KDM6B-mut114 were added with ProteinA/G beads with HA antibody, and cells SCAPs Vector and SCAPs-Myc-WDR5 were added with ProteinA/G beads with Myc antibody. All cells were incubated overnight to form a complex of protein-antibody-agarose bead. The formation of a protein complex of KDM6B and WDR5 was detected by WB method. • (2) Grouping: Input group (loading amount of 25 μg); antibody group (loading amount of 800 μg, 2 μg of antibody); IgG group (loading amount of 800 μg, 2 μg of antibody). Samples were diluted with lysate. • (3) Preparation of protein A/G beads
The protein A/G beads were washed 4 times with PBS, and centrifuged at 2000 g for 2 minutes. The supernatant was carefully collected, and added with PBS to achieve a content of protein A/G beads of 50%. 30 μL of protein A/G beads was added to each tube, and rotated at 4 degrees overnight. • (4) The samples were centrifuged at 5000 rpm for 30 s at 4° C., and washed 4-5 times with PBS by inverted up and down. Then the samples were centrifuged, and the supernatant was discarded. The samples were added with 30 μL of 2× loading buffer, and placed at 100° C. for 5 minutes. • (5) The supernatant was subjected to electrophoresis.

“FITC-(Acp)-IVPMIHVSWNVARTVYGRKKRRQRRR [peptide 152]”: the “binding degree to WDR5 on polypeptide microarray (optical density of spots)” value at WDR5 synthetic protein is on record as “higher binding degree”. Moreover, in test [1], the “opening/blocking of the binding of KDM6B/WDR5 protein complex (Co-IP)” value is “could not effectively block the binding”.

The values are drawn from patent US20250041387A1, “POLYPEPTIDE SEQUENCE OF KDM6B AND APPLICATION OF KDM6B IN REGULATING AND CONTROLLING FUNCTION OF MESENCHYMAL STEM CELL” (BEIJING STOMATOLOGICAL HOSPITAL, CAPITAL MEDICAL UNIVERSITY, priority 2021, published 2025).
